{
  "source": "patent US10870832B2",
  "about": "“Use of small molecules to enhance MAFA expression in pancreatic endocrine cells” (Janssen Biotech, Inc., priority 2014, dated 2020)",
  "experiment_in_all_cases": "Kinase profiling of R428",
  "format_in_all_cases": "biochemical",
  "key": {"GSK3 a(h)": {"molecular_target": "GSK3 a(h) (Homo sapiens, UniProt P49840)", "sequence (P49840 whole entry)": "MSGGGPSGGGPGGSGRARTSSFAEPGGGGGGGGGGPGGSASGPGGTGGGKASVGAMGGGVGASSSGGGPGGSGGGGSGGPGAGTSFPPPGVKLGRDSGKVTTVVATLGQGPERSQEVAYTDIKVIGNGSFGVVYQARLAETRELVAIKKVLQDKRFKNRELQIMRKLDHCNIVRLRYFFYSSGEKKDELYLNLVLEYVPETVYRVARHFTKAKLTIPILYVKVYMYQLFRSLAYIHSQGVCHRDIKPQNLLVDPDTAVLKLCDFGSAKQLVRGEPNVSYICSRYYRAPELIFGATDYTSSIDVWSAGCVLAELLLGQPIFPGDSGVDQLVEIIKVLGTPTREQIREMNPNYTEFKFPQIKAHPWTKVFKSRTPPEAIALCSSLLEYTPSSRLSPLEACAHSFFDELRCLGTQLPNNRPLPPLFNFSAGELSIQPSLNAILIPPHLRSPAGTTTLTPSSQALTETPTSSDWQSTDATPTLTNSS", "details": "100 μM ATP, lower number = more robust inhibition", "method": "(§1) The efficiency of the AXL inhibitor R428 for targeting different kinases was assessed by Kinase Profiling Services using 100 μM ATP concentration (EMD Millipore). R428 was tested at 1 and 10 μM. Table IV lists the kinases profiled along with the efficiency in targeting the kinases with a lower number indicating a more robust inhibition of a particular kinase."}, "Pim-2(h)": {"molecular_target": "Pim-2(h) (Homo sapiens, UniProt Q9P1W9)", "sequence (Q9P1W9 whole entry)": "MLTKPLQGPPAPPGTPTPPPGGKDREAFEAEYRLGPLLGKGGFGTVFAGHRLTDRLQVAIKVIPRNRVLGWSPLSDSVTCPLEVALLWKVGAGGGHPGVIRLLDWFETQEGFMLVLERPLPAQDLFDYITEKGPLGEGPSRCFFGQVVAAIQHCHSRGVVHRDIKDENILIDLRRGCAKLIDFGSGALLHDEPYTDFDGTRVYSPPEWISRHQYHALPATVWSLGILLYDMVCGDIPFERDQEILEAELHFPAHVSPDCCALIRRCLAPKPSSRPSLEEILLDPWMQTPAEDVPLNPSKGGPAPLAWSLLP", "details": "100 μM ATP, lower number = more robust inhibition", "method": "as §1"}, "Ret(h)": {"molecular_target": "Ret(h) (Homo sapiens, UniProt P07949)", "sequence (P07949 29-1114)": "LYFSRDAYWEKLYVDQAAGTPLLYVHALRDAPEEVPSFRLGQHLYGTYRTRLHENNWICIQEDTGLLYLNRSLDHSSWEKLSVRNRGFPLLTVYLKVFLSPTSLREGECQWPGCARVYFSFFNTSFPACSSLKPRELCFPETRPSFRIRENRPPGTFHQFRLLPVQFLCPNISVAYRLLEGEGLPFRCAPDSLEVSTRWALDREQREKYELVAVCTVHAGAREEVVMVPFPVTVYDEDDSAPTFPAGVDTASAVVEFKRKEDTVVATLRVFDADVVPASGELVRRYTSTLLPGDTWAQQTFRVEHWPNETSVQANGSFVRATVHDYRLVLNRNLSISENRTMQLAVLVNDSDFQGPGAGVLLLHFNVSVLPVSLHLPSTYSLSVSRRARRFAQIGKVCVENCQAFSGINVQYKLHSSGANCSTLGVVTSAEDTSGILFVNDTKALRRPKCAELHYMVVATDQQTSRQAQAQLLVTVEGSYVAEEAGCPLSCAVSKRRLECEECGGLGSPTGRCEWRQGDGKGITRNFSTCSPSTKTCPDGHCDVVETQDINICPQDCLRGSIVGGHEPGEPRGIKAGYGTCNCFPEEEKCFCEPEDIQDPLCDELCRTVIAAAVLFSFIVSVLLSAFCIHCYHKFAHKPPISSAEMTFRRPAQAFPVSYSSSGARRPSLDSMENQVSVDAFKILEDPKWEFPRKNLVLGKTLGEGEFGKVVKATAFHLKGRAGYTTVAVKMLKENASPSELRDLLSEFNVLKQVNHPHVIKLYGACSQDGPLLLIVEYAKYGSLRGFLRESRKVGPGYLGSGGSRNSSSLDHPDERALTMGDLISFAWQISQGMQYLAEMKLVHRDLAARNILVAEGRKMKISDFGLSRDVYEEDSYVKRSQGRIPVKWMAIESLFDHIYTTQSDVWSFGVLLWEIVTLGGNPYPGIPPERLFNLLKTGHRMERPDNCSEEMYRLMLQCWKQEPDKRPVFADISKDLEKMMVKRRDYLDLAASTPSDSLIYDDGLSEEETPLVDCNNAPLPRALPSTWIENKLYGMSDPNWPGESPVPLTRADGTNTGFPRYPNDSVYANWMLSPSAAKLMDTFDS", "details": "for efficiency in targeting Ret(h): 100 μM ATP, lower number = more robust inhibition", "method": "as §1"}, "CK2α2(h)": {"molecular_target": "CK2α2(h) (Homo sapiens, UniProt P19784)", "sequence (P19784 whole entry)": "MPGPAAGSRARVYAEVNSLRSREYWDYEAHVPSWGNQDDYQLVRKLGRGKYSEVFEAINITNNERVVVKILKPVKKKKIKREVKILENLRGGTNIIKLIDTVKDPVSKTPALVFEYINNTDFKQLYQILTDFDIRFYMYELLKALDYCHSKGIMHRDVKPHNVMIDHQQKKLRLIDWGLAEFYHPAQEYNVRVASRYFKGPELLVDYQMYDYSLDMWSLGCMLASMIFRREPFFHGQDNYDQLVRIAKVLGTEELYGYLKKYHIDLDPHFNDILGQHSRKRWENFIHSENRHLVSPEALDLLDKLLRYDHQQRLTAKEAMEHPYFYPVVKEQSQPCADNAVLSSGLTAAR", "details": "100 μM ATP, lower number = more robust inhibition", "method": "as §1"}, "Axl(h)": {"molecular_target": "T1, Axl(h) (Homo sapiens, UniProt P30530)", "T1 sequence (P30530 26-894)": "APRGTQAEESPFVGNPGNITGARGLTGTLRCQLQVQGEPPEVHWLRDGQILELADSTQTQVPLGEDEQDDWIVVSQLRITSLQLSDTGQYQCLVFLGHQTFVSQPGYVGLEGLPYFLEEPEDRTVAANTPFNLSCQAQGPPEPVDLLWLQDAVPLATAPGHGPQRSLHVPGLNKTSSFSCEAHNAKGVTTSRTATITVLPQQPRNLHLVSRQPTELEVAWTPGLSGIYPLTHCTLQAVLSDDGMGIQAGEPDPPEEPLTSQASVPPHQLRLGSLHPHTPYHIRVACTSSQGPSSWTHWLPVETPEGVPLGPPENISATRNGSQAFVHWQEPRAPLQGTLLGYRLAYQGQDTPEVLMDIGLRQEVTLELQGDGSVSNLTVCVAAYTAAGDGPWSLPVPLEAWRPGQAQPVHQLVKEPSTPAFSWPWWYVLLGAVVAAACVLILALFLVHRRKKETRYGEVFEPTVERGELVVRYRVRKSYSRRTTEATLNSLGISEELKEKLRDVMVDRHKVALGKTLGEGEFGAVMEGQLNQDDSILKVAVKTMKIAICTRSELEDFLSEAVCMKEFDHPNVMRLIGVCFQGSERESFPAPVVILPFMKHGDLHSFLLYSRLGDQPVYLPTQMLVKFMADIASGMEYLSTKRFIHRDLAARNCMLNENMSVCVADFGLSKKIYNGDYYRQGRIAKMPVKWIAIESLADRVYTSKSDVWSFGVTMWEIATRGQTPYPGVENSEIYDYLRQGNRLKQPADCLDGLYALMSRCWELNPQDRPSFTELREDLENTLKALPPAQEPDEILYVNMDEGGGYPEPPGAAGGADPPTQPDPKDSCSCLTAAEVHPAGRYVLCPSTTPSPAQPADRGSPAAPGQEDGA", "details": "for efficiency in targeting Axl(h): 100 μM ATP, lower number = more robust inhibition", "method": "as §1"}, "Aurora-A(h)": {"molecular_target": "T2, Aurora-A(h) (Homo sapiens, UniProt O14965)", "T2 sequence (O14965 1-403)": "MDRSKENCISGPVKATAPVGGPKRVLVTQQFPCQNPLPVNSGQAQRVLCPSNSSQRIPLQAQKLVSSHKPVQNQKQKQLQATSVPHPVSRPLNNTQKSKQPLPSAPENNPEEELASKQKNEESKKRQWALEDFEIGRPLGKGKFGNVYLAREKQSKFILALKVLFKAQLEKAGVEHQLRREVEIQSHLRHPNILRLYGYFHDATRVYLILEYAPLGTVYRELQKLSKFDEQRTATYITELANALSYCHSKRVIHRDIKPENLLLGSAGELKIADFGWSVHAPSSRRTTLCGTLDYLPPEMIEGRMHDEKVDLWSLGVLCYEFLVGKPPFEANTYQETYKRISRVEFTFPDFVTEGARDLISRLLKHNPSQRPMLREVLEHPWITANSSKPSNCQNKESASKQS", "details": "for efficiency in targeting Aurora-A(h): 100 μM ATP, lower number = more robust inhibition", "method": "as §1"}},
  "data": [
    {"smiles": "Nc1nc(Nc2ccc3c(c2)CC[C@@H](N2CCCC2)CC3)nn1-c1cc2c(nn1)-c1ccccc1CCC2", "note": "[R428, 1H-1,2,4-Triazole-3,5-diamine, 1-(6,7-dihydro-5H-benzo[6,7]cyclohepta[1,2-c]pyridazin-3-yl) N3-[(7S)-6,7,8,9-tetrahydro-7-(1-pyrrolidinyl)-5H-benzocyclohepten-2-yl]-]", "values": [
      {"measurement": "efficiency in targeting GSK3 a(h)", "setting": "GSK3 a(h); R428 @ 1 μM", "result": 95},
      {"measurement": "efficiency in targeting GSK3 a(h)", "setting": "GSK3 a(h); R428 @ 10 μM", "result": 105},
      {"measurement": "efficiency in targeting Pim-2(h)", "setting": "Pim-2(h); R428 @ 1 μM", "result": 87},
      {"measurement": "efficiency in targeting Pim-2(h)", "setting": "Pim-2(h); R428 @ 10 μM", "result": 74},
      {"measurement": "efficiency in targeting Ret(h)", "setting": "Ret(h); R428 @ 1 μM", "result": 1},
      {"measurement": "efficiency in targeting Ret(h)", "setting": "Ret(h); R428 @ 10 μM", "result": 1},
      {"measurement": "inhibition of Ret (in words)", "setting": "Ret(h); at 1 and 10 μM", "result": "potently inhibits"},
      {"measurement": "efficiency in targeting CK2α2(h)", "setting": "CK2α2(h); R428 @ 1 μM", "result": 112},
      {"measurement": "efficiency in targeting CK2α2(h)", "setting": "CK2α2(h); R428 @ 10 μM", "result": 97},
      {"measurement": "efficiency in targeting Axl(h)", "setting": "Axl(h); R428 @ 1 μM", "result": "−1"},
      {"measurement": "efficiency in targeting Axl(h)", "setting": "Axl(h); R428 @ 10 μM", "result": "−1"},
      {"measurement": "inhibition of AXL (in words)", "setting": "Axl(h); kinase profiling results", "result": "inhibits AXL as expected"},
      {"measurement": "efficiency in targeting Aurora-A(h)", "setting": "Aurora-A(h); R428 @ 1 μM", "result": 20},
      {"measurement": "efficiency in targeting Aurora-A(h)", "setting": "Aurora-A(h); R428 @ 10 μM", "result": 3},
      {"measurement": "inhibition of AuroraA (in words)", "setting": "Aurora-A(h); at 1 and 10 μM", "result": "potently inhibits"}
    ]}
  ]
}
